Experimental data: PubChem BioAssay (NCI)
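Interpolation was linear, between the two tested concentrations surrounding the appropriate level; five concentrations were tested over 48 hours in 96-well plates. GI50 marks 50% less growth. TGI denotes the concentration required for complete inhibition of growth.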

How the values were obtained:
Experiment in all cases: NCI anticancer screen, dose series, 48 h
786-0 renal = test system: 786-0 renal
A498 renal = test system: A498 renal
A549 NSCLC = test system: A549 NSCLC
ACHN renal = test system: ACHN renal
BT-549 breast = test system: BT-549 breast
CAKI-1 renal = test system: CAKI-1 renal
CCRF-CEM leukemia = test system: CCRF-CEM leukemia
COLO 205 colon = test system: COLO 205 colon
DU-145 prostate = test system: DU-145 prostate
EKVX NSCLC = test system: EKVX NSCLC
HCC-2998 colon = test system: HCC-2998 colon
HCT-116 colon = test system: HCT-116 colon
HCT-15 colon = test system: HCT-15 colon
HL-60(TB) leukemia = test system: HL-60(TB) leukemia
HOP-62 NSCLC = test system: HOP-62 NSCLC
HOP-92 NSCLC = test system: HOP-92 NSCLC
HS 578T breast = test system: HS 578T breast
HT29 colon = test system: HT29 colon
IGROV1 ovarian = test system: IGROV1 ovarian
K-562 leukemia = test system: K-562 leukemia
KM12 colon = test system: KM12 colon
LOX IMVI melanoma = test system: LOX IMVI melanoma
M14 melanoma = test system: M14 melanoma
MALME-3M melanoma = test system: MALME-3M melanoma
MCF7 breast = test system: MCF7 breast
MDA-MB-231 breast = test system: MDA-MB-231 breast
MDA-MB-435 = test system: MDA-MB-435
MDA-N = test system: MDA-N
MOLT-4 leukemia = test system: MOLT-4 leukemia
NCI-H226 lung = test system: NCI-H226 lung
NCI-H23 lung = test system: NCI-H23 lung
NCI-H460 lung = test system: NCI-H460 lung
NCI-H522 lung = test system: NCI-H522 lung
NCI/ADR-RES ovarian = test system: NCI/ADR-RES ovarian
OVCAR-3 ovarian = test system: OVCAR-3 ovarian
OVCAR-4 ovarian = test system: OVCAR-4 ovarian
OVCAR-5 ovarian = test system: OVCAR-5 ovarian
OVCAR-8 ovarian = test system: OVCAR-8 ovarian
PC-3 prostate = test system: PC-3 prostate
RPMI-8226 leukemia = test system: RPMI-8226 leukemia
RXF 393 renal = test system: RXF 393 renal
SF-268 CNS = test system: SF-268 CNS
SF-295 CNS = test system: SF-295 CNS
SF-539 CNS = test system: SF-539 CNS
SK-MEL-2 melanoma = test system: SK-MEL-2 melanoma
SK-MEL-28 melanoma = test system: SK-MEL-28 melanoma
SK-MEL-5 melanoma = test system: SK-MEL-5 melanoma
SK-OV-3 ovarian = test system: SK-OV-3 ovarian
SN12C renal = test system: SN12C renal
SNB-19 CNS = test system: SNB-19 CNS
SNB-75 CNS = test system: SNB-75 CNS
SR leukemia = test system: SR leukemia
SW-620 colon = test system: SW-620 colon
T-47D breast = test system: T-47D breast
TK-10 renal = test system: TK-10 renal
U251 CNS = test system: U251 CNS
UACC-257 melanoma = test system: UACC-257 melanoma
UACC-62 melanoma = test system: UACC-62 melanoma
UO-31 renal = test system: UO-31 renal

Cc1nc2ccccc2nc1NNc1ccccc1
TGI (786-0 renal): > 92.1 µM | TGI (A498 renal): > 94.5 µM | TGI (A549 NSCLC): > 95.9 µM | TGI (ACHN renal): 85.9 µM | TGI (BT-549 breast): 70 µM | TGI (CAKI-1 renal): > 100 µM | TGI (CCRF-CEM leukemia): 78.7 µM | TGI (COLO 205 colon): 1.03 µM | TGI (DU-145 prostate): > 86.1 µM | TGI (EKVX NSCLC): 68.2 µM | TGI (HCC-2998 colon): > 100 µM | TGI (HCT-116 colon): > 100 µM | TGI (HCT-15 colon): > 82.6 µM | TGI (HL-60(TB) leukemia): 58.8 µM | TGI (HOP-62 NSCLC): 86.6 µM | TGI (HOP-92 NSCLC): 57 µM | TGI (HS 578T breast): > 95.1 µM | TGI (HT29 colon): 18.7 µM | TGI (IGROV1 ovarian): 73.3 µM | TGI (K-562 leukemia): 74.5 µM | TGI (KM12 colon): 63.4 µM | TGI (LOX IMVI melanoma): 70.7 µM | TGI (M14 melanoma): 64.8 µM | TGI (MALME-3M melanoma): 69.5 µM | TGI (MCF7 breast): > 100 µM | TGI (MDA-MB-231 breast): 70.7 µM | TGI (MDA-MB-435): 41.7 µM | TGI (MDA-N): 48.9 µM | GI50 (MOLT-4 leukemia): 12.1 µM | TGI (MOLT-4 leukemia): 40.7 µM | TGI (NCI-H226 lung): 85.7 µM | TGI (NCI-H23 lung): 77.2 µM | TGI (NCI-H460 lung): > 88.7 µM | TGI (NCI-H522 lung): > 88.4 µM | TGI (NCI/ADR-RES ovarian): 75.8 µM | TGI (OVCAR-3 ovarian): 70.4 µM | TGI (OVCAR-4 ovarian): > 87.8 µM | TGI (OVCAR-5 ovarian): > 84.4 µM | TGI (OVCAR-8 ovarian): 77.8 µM | TGI (PC-3 prostate): > 84.4 µM | TGI (RPMI-8226 leukemia): 41 µM | GI50 (RXF 393 renal): 18.6 µM | TGI (RXF 393 renal): 78.7 µM | TGI (SF-268 CNS): > 100 µM | TGI (SF-295 CNS): > 93.6 µM | TGI (SF-539 CNS): > 96.2 µM | TGI (SK-MEL-2 melanoma): > 80.8 µM | TGI (SK-MEL-28 melanoma): > 96.7 µM | TGI (SK-MEL-5 melanoma): 31.5 µM | GI50 (SK-OV-3 ovarian): 24.8 µM | TGI (SK-OV-3 ovarian): > 100 µM | TGI (SN12C renal): 72.9 µM | TGI (SNB-19 CNS): > 100 µM | TGI (SNB-75 CNS): > 84.9 µM | TGI (SR leukemia): 74.5 µM | TGI (SW-620 colon): > 74.9 µM | TGI (T-47D breast): 46.9 µM | TGI (TK-10 renal): 98.7 µM | TGI (U251 CNS): > 93.5 µM | TGI (UACC-257 melanoma): 74.3 µM | TGI (UACC-62 melanoma): 43.4 µM | TGI (UO-31 renal): > 86.5 µM

Clc1ccc(COc2ccccc2/C=N/c2c(-c3ccco3)nc3ccccn23)c(Cl)c1
TGI (786-0 renal): 75.9 µM | TGI (A498 renal): > 100 µM | TGI (A549 NSCLC): > 100 µM | TGI (ACHN renal): > 100 µM | TGI (BT-549 breast): 89.6 µM | TGI (CAKI-1 renal): > 100 µM | TGI (CCRF-CEM leukemia): 63.7 µM | TGI (COLO 205 colon): > 100 µM | TGI (DU-145 prostate): 76 µM | TGI (EKVX NSCLC): > 100 µM | TGI (HCC-2998 colon): > 100 µM | TGI (HCT-116 colon): 36.7 µM | TGI (HCT-15 colon): 88.3 µM | TGI (HL-60(TB) leukemia): 71.2 µM | TGI (HOP-62 NSCLC): > 100 µM | TGI (HOP-92 NSCLC): 57.4 µM | TGI (HS 578T breast): > 100 µM | TGI (HT29 colon): > 100 µM | TGI (IGROV1 ovarian): > 100 µM | TGI (K-562 leukemia): > 100 µM | TGI (KM12 colon): > 100 µM | TGI (LOX IMVI melanoma): 35.5 µM | TGI (M14 melanoma): 74.1 µM | TGI (MALME-3M melanoma): > 100 µM | TGI (MCF7 breast): 62 µM | TGI (MDA-MB-231 breast): 52.6 µM | TGI (MDA-MB-435): 49.1 µM | TGI (MDA-N): 70.2 µM | TGI (MOLT-4 leukemia): > 100 µM | TGI (NCI-H226 lung): > 100 µM | TGI (NCI-H23 lung): > 100 µM | TGI (NCI-H460 lung): > 100 µM | TGI (NCI-H522 lung): > 100 µM | TGI (NCI/ADR-RES ovarian): 96.1 µM | TGI (OVCAR-3 ovarian): > 100 µM | TGI (OVCAR-4 ovarian): > 100 µM | TGI (OVCAR-5 ovarian): > 100 µM | TGI (OVCAR-8 ovarian): > 100 µM | TGI (PC-3 prostate): > 100 µM | TGI (RPMI-8226 leukemia): 86.2 µM | TGI (RXF 393 renal): 56.3 µM | TGI (SF-268 CNS): > 100 µM | TGI (SF-295 CNS): > 100 µM | TGI (SF-539 CNS): 47.3 µM | TGI (SK-MEL-2 melanoma): 42.8 µM | TGI (SK-MEL-28 melanoma): > 100 µM | TGI (SK-MEL-5 melanoma): 32 µM | TGI (SK-OV-3 ovarian): > 100 µM | TGI (SN12C renal): 66.6 µM | TGI (SNB-19 CNS): > 100 µM | TGI (SNB-75 CNS): 69.7 µM | TGI (SR leukemia): 49.2 µM | TGI (SW-620 colon): > 100 µM | TGI (T-47D breast): > 100 µM | TGI (TK-10 renal): 88.6 µM | TGI (U251 CNS): > 100 µM | TGI (UACC-257 melanoma): > 100 µM | TGI (UACC-62 melanoma): > 100 µM | TGI (UO-31 renal): > 100 µM
